We go through 28 compounds from patent publication US20230203060A1 (GENFLEET THERAPEUTICS (SHANGHAI) INC., priority 2020, published 2023).

The IC50 is the concentration needed to halve the response being measured.

The subject of test [1] is KRAS G12C mutant MIA PaCa-2 cells. The test is described as follows: Cell proliferation inhibition experiment, 3D spheroid, CellTiter-Glo, MIA PaCa-2. It is filed as cell-based, human. Particulars: Homo sapiens, MIA PaCa-2, 120 h, 3D cell model in 384-well spheroid plate, 5 days, CellTiter-Glo; read-out: MIA-PaCa2 IC50. An outline of the steps:
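200 MIA PaCa-2 cells/well grown overnight as 3D spheroids, then exposed to 3.16-fold compound dilutions (0.1% DMSO final) for 5 days. Viability read by CellTiter-Glo luminescence; inhibition calculated against DMSO and medium-only controls, and IC50 fitted by four-parameter model.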

For test [2], the target named is T1, KRAS G12C (Homo sapiens, UniProt P01116, G12C).
T1 construct: purchased Reactionbiology
T1 sequence (P01116 1-188 isoform P01116-2 G12C): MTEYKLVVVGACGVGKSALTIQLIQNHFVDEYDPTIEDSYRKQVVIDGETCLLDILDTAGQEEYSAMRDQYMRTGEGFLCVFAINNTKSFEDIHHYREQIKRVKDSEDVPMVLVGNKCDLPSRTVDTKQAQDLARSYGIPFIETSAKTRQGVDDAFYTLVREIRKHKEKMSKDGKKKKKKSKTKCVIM
The test is described as follows: KRAS G12C NEA-HTRF experiment (SOS1-catalyzed displacement of GDP by GTP). Type of test: biochemical. An outline of the steps:
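His-tagged KRAS G12C preloaded with DY647-GDP was preincubated 15 min at 20 °C with compound, then exchanged with SOS1 (0.2 μM working solution) and GTP (200 μM working solution) for 2 h at 20 °C in the dark. HTRF 665/615 nm ratio with anti-His-Tb was normalised to T0 and no-compound controls; IC50 by four-parameter fit.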
(Time-resolved FRET reads energy transfer from a long-lived donor to a nearby acceptor.)

For the compound `C=CC(=O)N1CCN2C(=O)c3c(N4C[C@@H](N(C)C)CC4(C)C)nc(-c4c(O)cccc4F)c(Cl)c3OC[C@H]2C1` (single isomer, unassigned) [Z324-1], the values for the half-inhibitory concentration (IC50) in test [1] and in test [2] were 2.4 nM and 16 nM, respectively.

Consider `C=CC(=O)N1CCN2C(=O)c3c(N4C[C@H](N(C)C)CC4(C)C)nc(-c4c(O)cccc4F)c(Cl)c3OC[C@H]2C1` (single isomer, unassigned) [Z324-2], for which the IC50 in test [1] is 6.1 nM; in test [2], 61 nM.

In the case of `C=CC(=O)N1CCN2C(=O)c3c(N4C[C@H](O)CC4(C)C)nc(-c4ccccc4F)c(Cl)c3OC[C@H]2C1` (single isomer, unassigned) [Z325-2], the IC50 came to 15.5 nM in test [1] and 35 nM in test [2].

As for `C=CC(=O)N1CCN2C(=O)c3c(N4CC[C@@H](OC)C4(C)C)nc(-c4c(O)cccc4F)c(F)c3OC[C@H]2C1` (single isomer, unassigned) [Z327-1], the IC50 in test [1] is 7.1 nM; in test [2] it was 26 nM.

Regarding `C=CC(=O)N1CCN2C(=O)c3c(N4CC[C@H](OC)C4(C)C)nc(-c4c(O)cccc4F)c(F)c3OC[C@H]2C1` (single isomer, unassigned) [Z327-2], the half-inhibitory concentration (IC50) came out at 16.2 nM in test [1] and 64 nM in test [2].

Regarding `C=CC(=O)N1CCN2C(=O)c3c(N4CCO[C@](C)(COC)C4)nc(-c4c(O)cccc4F)c(Cl)c3OC[C@H]2C1` (single isomer, unassigned) [Z332-1], the values for the IC50 in test [1] and in test [2] were 17 nM and 130 nM, respectively.

Turning to `C=CC(=O)N1CCN2C(=O)c3c(N4CCO[C@](C)(CO)C4)nc(-c4c(O)cccc4F)c(Cl)c3OC[C@H]2C1` (single isomer, unassigned) [Z333-1], the IC50 in test [1] was found to be 30 nM; in test [2], 191 nM.

As for `C=CC(=O)N1CCN2C(=O)c3c(N4C[C@@H](O)CC4(C)C)nc(-c4c(O)ccc(Cl)c4F)c(F)c3OC[C@H]2C1` (single isomer, unassigned) [Z340-1], the IC50 stood at 11 nM in test [1] and 27 nM in test [2].

For `C=CC(=O)N1CCN2C(=O)c3c(N4C[C@H](O)CC4(C)C)nc(-c4c(O)ccc(Cl)c4F)c(F)c3OC[C@H]2C1` (single isomer, unassigned) [Z340-2], the concentration for half-maximal inhibition (IC50) in test [1] was 74 nM; in test [2], 98 nM.

Turning to `C=CC(=O)N1CCN2C(=O)c3c(N4C[C@@H](O)CC4(C)C)nc(-c4c(F)ccc(Cl)c4O)c(F)c3OC[C@H]2C1` (single isomer, unassigned) [Z341-1], the 50% inhibitory concentration (IC50) in test [1] amounted to 24 nM; in test [2] it was 35 nM.

Regarding `C=CC(=O)N1CCN2C(=O)c3c(N4Cc5nn(C)cc5[C@@H]4C)nc(-c4c(O)cccc4F)c(Cl)c3OC[C@H]2C1` (single isomer, unassigned) [Z345-2], the IC50 in test [1] is 17 nM; in test [2], 41 nM.

With `C=CC(=O)N1CCN2C(=O)c3c(N4CC[C@@H](N(C)C)C4(C)C)nc(-c4c(O)cccc4F)c(Cl)c3OC[C@H]2C1` (single isomer, unassigned) [Z360-1], the IC50 in test [1] turned out to be 19.6 nM; in test [2], 98.1 nM.

For `C=CC(=O)N1CCN2C(=O)c3c(N4CC[C@H](N(C)C)C4(C)C)nc(-c4c(O)cccc4F)c(Cl)c3OC[C@H]2C1` (single isomer, unassigned) [Z360-2], the half-inhibitory concentration (IC50) in test [1] amounted to 6 nM; in test [2], 36.9 nM.

Regarding `C=CC(=O)N1CCN2C(=O)c3c(N4C[C@@H](O)CC4(C)C)nc(-c4c(F)ccc(F)c4O)c(F)c3OC[C@H]2C1` (single isomer, unassigned) [Z449-1], the results for the IC50 in test [1] and in test [2] were 22 nM and 31 nM, respectively.

Turning to `C=CC(=O)N1CCN2C(=O)c3c(N4CCCC4(C)C)nc(-c4c(O)cccc4F)c(Cl)c3OC[C@H]2C1` [Z22, (6aR)-8-acryloyl-4-chloro-1-(2,2-dimethylpyrrolidin-1-yl)-3-(2-fluoro-6-hydroxyphenyl)-6,6a,7,8,9,10-hexahydro-12H-pyrazino[2,1-c]pyrido[3,4-f][1,4]oxazepin-12-one], the concentration for half-maximal inhibition (IC50) is 7 nM in test [1] and 20 nM in test [2].

In the case of `C=CC(=O)N1CCN2C(=O)c3c(N4CCN(C)C5(CC5)C4)nc(-c4c(O)cccc4F)c(Cl)c3OC[C@H]2C1` [Z83, (6aR)-8-acryloyl-4-chloro-3-(2-fluoro-6-hydroxyphenyl)-1-(4-methyl-4,7-diazaspiro[2 .5]octan-7-yl)-6,6a,7,8,9,10-hexahydro-12H-pyrazino[2,1-c]pyrido[3,4-f][1,4]oxazepin-12 (6aH)-one], the results for the IC50 in test [1] and in test [2] were 37.4 nM and 111 nM, respectively.

As for `C=CC(=O)N1CCN2C(=O)c3c(N4C[C@@H](N(C)C)C[C@@H]4C)nc(-c4c(O)cccc4F)c(Cl)c3OC[C@H]2C1` [Z237-2, (6aR)-8-acryloyl-4-chloro-1-((2S,4S)-4-(dimethylamino)-2-methylpyrrolidin-1-yl)-3-(2-fluoro-6-hydroxyphenyl)-6,6a,7,8,9,10-hexahydro-12H-pyrazino[2,1-c]pyrido[3,4-f][1,4]oxazepin-12-one], the figures for the IC50 in test [1] and in test [2] were 7.7 nM and 65 nM, respectively.

For the compound `C=CC(=O)N1CCN2C(=O)c3c(N4CCC(O)C4(C)C)nc(-c4c(O)cccc4F)c(Cl)c3OC[C@H]2C1` (stereo partly drawn) [Z241, (6aR)-8-acryloyl-1-(3-hydroxy-2,2-dimethylpyrrolidin-1-yl)-4-chloro-3-(2-fluoro-6-hydroxyphenyl)-6,6a,7,8,9,10-hexahydro-12H-pyrazino[2,1-c]pyrido[3,4-f][1,4]oxazepin-12-one], the half-inhibitory concentration (IC50) in test [1] was 4.9 nM; in test [2] it was 18 nM.

As to `C=CC(=O)N1CCN2C(=O)c3c(N4CCC(OC)C4(C)C)nc(-c4c(O)cccc4F)c(Cl)c3OC[C@H]2C1` (stereo partly drawn) [Z241a, (6aR)-8-acryloyl-4-chloro-3-(2-fluoro-6-hydroxyphenyl)-1-(3-methoxy-2,2-dimethylpyrrolidin-1-yl)-6,6a,7,8,9,10-hexahydro-12H-pyrazino[2,1-c]pyrido[3,4-f][1,4]oxazepin-12-one], the values for the IC50 in test [1] and in test [2] were 2.4 nM and 9 nM, respectively.

Take `C=CC(=O)N1CCN2C(=O)c3c(N4CC(C)(O)CC4(C)C)nc(-c4c(O)cccc4F)c(Cl)c3OC[C@H]2C1` (stereo partly drawn) [Z243, (6aR)-8-acryloyl-4-chloro-3-(2-fluoro-6-hydroxyphenyl)-1-(4-hydroxy-2,2,4-trimethylpyrrolidin-1-yl)-6,6a,7,8,9,10-hexahydro-12H-pyrazino[2,1-c]pyrido[3,4-f][1,4]oxazepin-12-one]: the IC50 in test [1] was 4.2 nM; in test [2] it was 23 nM.

Regarding `C=CC(=O)N1CCN2C(=O)c3c(N4CC(OC)CC4(C)C)nc(-c4c(O)cccc4F)c(Cl)c3OC[C@H]2C1` (stereo partly drawn) [Z244, (6aR)-8-acryloyl-4-chloro-3-(2-fluoro-6-hydroxyphenyl)-1-(4-methoxy-2,2-dimethylpyrrolidin-1-yl)-12-oxo-6,6a,7,8,9,10-hexahydro-12H-pyrazino[2,1-c]pyrido[3,4-f][1,4]oxazepin-12-one], the figures for the IC50 in test [1] and in test [2] were 7 nM and 47 nM, respectively.

For the compound `C=CC(=O)N1CCN2C(=O)c3c(N4CCN(CCOC)C[C@@H]4C)nc(-c4c(O)cccc4F)c(Cl)c3OC[C@H]2C1` [Z257a, (6aR)-8-acryloyl-4-chloro-3-(2-fluoro-6-hydroxyphenyl)-1-((S)-4-(2-methoxyethyl)-2-methylpiperazin-1-yl)-6,6a,7,8,9,10-hexahydro-12H-pyrazino[2,1-c]pyrido[3,4-f][1,4]oxazepin-12-one], the IC50 in test [1] is 9 nM; in test [2], 76 nM.

For the compound `C=CC(=O)N1CCN2C(=O)c3c(N4C[C@H](OC)C[C@@H]4C)nc(-c4c(O)cccc4F)c(Cl)c3OC[C@H]2C1` [Z259a, (6aR)-8-acryloyl-4-chloro-3-(2-fluoro-6-hydroxyphenyl)-1-((2S,4R)-4-methoxy-2-methylpyrrolidin-1-yl)-6,6a,7,8,9,10-hexahydro-12H-pyrazino[2,1-c]pyrido[3,4-f][1,4]oxazepin-12-one], the IC50 in test [1] was 4.4 nM; in test [2], 26 nM.

Turning to `C=CC(=O)N1CCN2C(=O)c3c(N4C[C@@H](OC)C[C@@H]4C)nc(-c4c(O)cccc4F)c(Cl)c3OC[C@H]2C1` [Z260a, (6aR)-8-acryloyl-4-chloro-3-(2-fluoro-6-hydroxyphenyl)-1-((2S,4S)-4-methoxy-2-methylpyrrolidin-1-yl)-6,6a,7,8,9,10-hexahydro-12H-pyrazino[2,1-c]pyrido[3,4-f][1,4]oxazepin-12-one], the half-maximal inhibitory concentration (IC50) in test [1] was found to be 3.6 nM; in test [2] it was 27 nM.

As for `C=CC(=O)N1CCN2C(=O)c3c(N4CC(C#N)CC4(C)C)nc(-c4c(O)cccc4F)c(Cl)c3OC[C@H]2C1` (stereo partly drawn) [Z275, (6aR)-8-acryloyl-1-(4-cyano-2,2-dimethylpyrrolidin-1-yl)-4-chloro-3-(2-fluoro-6-hydroxyphenyl)-6,6a,7,8,9,10-hexahydro-12H-pyrazino[2,1-c]pyrido[3,4-f][1,4]oxazepin-12-one], the IC50 amounted to 5 nM in test [1] and 21 nM in test [2].

On to `C=CC(=O)N1CCN2C(=O)c3c(N4CC(C)(C)OC[C@@H]4C)nc(-c4c(O)cccc4F)c(Cl)c3OC[C@H]2C1` [Z276-1, (6aR)-8-acryloyl-4-chloro-3-(2-fluoro-6-hydroxyphenyl)-1-((S)-2,2,5-trimethylmorpholino)-6,6a,7,8,9,10-hexahydro-12H-pyrazino[2,1-c]pyrido[3,4-f][1,4]oxazepin-12-one], for which the half-inhibitory concentration (IC50) in test [1] worked out at 14.9 nM; in test [2] it was 113 nM.

On to `C=CC(=O)N1CCN2C(=O)c3c(N4CCC[C@@]4(C)CO)nc(-c4c(O)cccc4F)c(Cl)c3OC[C@H]2C1` [Z279-2], for which the IC50 in test [1] stood at 4.9 nM; in test [2] it was 29 nM.

On to `C=CC(=O)N1CCN2C(=O)c3c(N4Cc5cn(C)nc5C4C)nc(-c4c(O)cccc4F)c(Cl)c3OC[C@H]2C1` (some centres unmarked) [Z291-2], for which the results for the half-maximal inhibitory concentration (IC50) in test [1] and in test [2] were 7 nM and 18 nM, respectively.
